Laboratory results published in patent publication US8952024B2, “Herbicidal pyrimidone derivatives” (E I du Pont de Nemours and Company, priority 2009, dated 2015).

Assays:
Experiment in all cases: Test D pre-/postemergence plant response
Assay type in all cases: in vivo
[1] = tested on: field bindweed (Convolvulus arvensis)
How it was run: (§1)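 Visual 0–100 scoring (100 = complete control) versus untreated controls after 14–21 greenhouse days. Compounds, formulated in surfactant-containing non-phytotoxic solvent, were applied preemergence to seeded loam/sand and postemergence to 2–18 cm plants (1–4 leaves).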

[2] = tested on: johnsongrass (Sorghum halepense)
How it was run: as §1

[3] = tested on: mallow (common mallow, Malva sylvestris)
How it was run: as §1

[4] = tested on: goosegrass (Eleusine indica)
How it was run: as §1

[5] = tested on: naked crabgrass (Digitaria nuda)
How it was run: as §1

[6] = tested on: prickly sida (Sida spinosa)
How it was run: as §1

[7] = tested on: sandbur (southern sandbur, Cenchrus echinatus)
How it was run: as §1

[8] = tested on: bermudagrass (Cynodon dactylon)
How it was run: as §1

[9] = tested on: groundsel (common groundsel, Senecio vulgaris); conditions: Postemergence
How it was run: as §1

[10] = tested on: green foxtail (Setaria viridis)
How it was run: as §1

[11] = tested on: dayflower (Virginia (VA) dayflower, Commelina virginica)
How it was run: as §1

[12] = tested on: Italian ryegrass (Lolium multiflorum)
How it was run: as §1

[13] = tested on: bluegrass (annual bluegrass, Poa annua)
How it was run: as §1

[14] = tested on: ragweed (common ragweed, Ambrosia elatior)
How it was run: as §1

[15] = tested on: quackgrass (Elytrigia repens)
How it was run: as §1

[16] = Postemergence, 125 g ai/ha, scale 0 to 100 (0 no effect, 100 complete control)
[17] = Postemergence, 250 g ai/ha, scale 0 to 100 (0 no effect, 100 complete control)
[18] = Postemergence, 62 g ai/ha, scale 0 to 100 (0 no effect, 100 complete control)
[19] = Postemergence, 31 g ai/ha, scale 0 to 100 (0 no effect, 100 complete control)
[20] = 125 g ai/ha, scale 0 to 100 (0 no effect, 100 complete control)
[21] = 62 g ai/ha, scale 0 to 100 (0 no effect, 100 complete control)
[22] = Postemergence, 16 g ai/ha, scale 0 to 100
[23] = Postemergence, 31 g ai/ha, scale 0 to 100
[24] = Preemergence, 16 g ai/ha, scale 0 to 100, 0 no effect, 100 complete control
[25] = Preemergence, 31 g ai/ha, scale 0 to 100 (0 no effect, 100 complete control)
[26] = Preemergence, 62 g ai/ha, scale 0 to 100
[27] = Preemergence, 125 g ai/ha, scale 0 to 100

For `CCCn1c(-c2ccccc2)ncc(C(=O)C2=C(O)C3CCC(C3)C2=O)c1=O` (stereo not drawn) [Compound 226], the “Plant response rating, Field Bindweed” value [1, 16] was 70, the “Plant response rating, Field Bindweed” value [1, 17] was 80 and the “Plant response rating, Field Bindweed” value [1, 18] was 70. For the same compound, the “Plant response rating, Johnsongrass” value [2, 16] was 80, the “Plant response rating, Johnsongrass” value [2, 17] was 90 and the “Plant response rating, Johnsongrass” value [2, 18] was 80. For the same compound, the “Plant response rating, Mallow” value [3, 16] was 50, the “Plant response rating, Mallow” value [3, 17] was 65 and the “Plant response rating, Mallow” value [3, 18] was 50. The “Plant response rating, Goosegrass” value [4, 16] was 70, the “Plant response rating, Goosegrass” value [4, 17] was 75 and the “Plant response rating, Goosegrass” value [4, 18] was 70. The “Plant response rating, Crabgrass, Naked” value [5, 16] was 70, the “Plant response rating, Crabgrass, Naked” value [5, 17] was 75 and the “Plant response rating, Crabgrass, Naked” value [5, 18] was 65. The “Plant response rating, Prickly Sida” value [6, 16] was 70, the “Plant response rating, Prickly Sida” value [6, 17] was 75 and the “Plant response rating, Prickly Sida” value [6, 18] was 65. The “Plant response rating, Sandbur” value [7, 16] was 75, the “Plant response rating, Sandbur” value [7, 17] was 75 and the “Plant response rating, Sandbur” value [7, 18] was 75. The “Plant response rating, Bermudagrass” value [8, 19] was 90, the “Plant response rating, Bermudagrass” value [8, 16] was 95 and the “Plant response rating, Bermudagrass” value [8, 17] was 98. The “Plant response rating, Bermudagrass” value [8, 18] was 95, the “Plant response rating, Groundsel” value [9, 20] was 95 and the “Plant response rating, Groundsel” value ([9]; 250 g ai/ha, scale 0 to 100 (0 no effect, 100 complete control)) was 100. For the same compound, the “Plant response rating, Groundsel” value [9, 21] was 90, the “Plant response rating, Foxtail, Green” value [10, 16] was 80 and the “Plant response rating, Foxtail, Green” value [10, 17] was 98. The “Plant response rating, Foxtail, Green” value [10, 18] was 70, the “Plant response rating, Dayflower, VA” value [11, 17] was 65 and the “Plant response rating, Dayflower, VA” value [11, 18] was 50. The “Plant response rating, Ryegrass, Italian” value [12, 16] was 0, the “Plant response rating, Ryegrass, Italian” value [12, 17] was 15 and the “Plant response rating, Ryegrass, Italian” value [12, 18] was 0. For the same compound, the “Plant response rating, Bluegrass” value [13, 19] was 0, the “Plant response rating, Bluegrass” value [13, 16] was 10 and the “Plant response rating, Bluegrass” value [13, 17] was 30. The “Plant response rating, Bluegrass” value [13, 18] was 10, the “Plant response rating, Ragweed” value [14, 16] was 90 and the “Plant response rating, Ragweed” value [14, 17] was 98. For the same compound, the “Plant response rating, Ragweed” value [14, 18] was 90, the “Plant response rating, Quackgrass” value [15, 16] was 20 and the “Plant response rating, Quackgrass” value [15, 17] was 35. For the same compound, the “Plant response rating, Quackgrass” value [15, 18] was 0.

In the case of `Cc1ccc(F)c(-n2c(-c3ccccc3)ncc(C(=O)C3=C(O)CCCC3=O)c2=O)c1` [Compound 51], the “Plant response rating, Field Bindweed” value [1, 22] is reported as 5, the “Plant response rating, Field Bindweed” value [1, 23] is reported as 5 and the “Plant response rating, Field Bindweed” value [1, 16] is reported as 60. The “Plant response rating, Field Bindweed” value [1, 18] was 20, the “Plant response rating, Field Bindweed” value [1, 24] was 0 and the “Plant response rating, Field Bindweed” value [1, 25] was 0. For the same compound, the “Plant response rating, Field Bindweed” value [1, 26] was 0, the “Plant response rating, Field Bindweed” value [1, 27] was 0 and the “Plant response rating, Johnsongrass” value [2, 22] was 20. The “Plant response rating, Johnsongrass” value [2, 23] was 35, the “Plant response rating, Johnsongrass” value [2, 16] was 70 and the “Plant response rating, Johnsongrass” value [2, 18] was 60. For the same compound, the “Plant response rating, Johnsongrass” value [2, 24] was 0, the “Plant response rating, Johnsongrass” value [2, 25] was 0 and the “Plant response rating, Johnsongrass” value [2, 26] was 20. The “Plant response rating, Johnsongrass” value [2, 27] was 70, the “Plant response rating, Mallow” value [3, 22] was 0 and the “Plant response rating, Mallow” value [3, 23] was 0. The “Plant response rating, Mallow” value [3, 16] was 20, the “Plant response rating, Mallow” value [3, 18] was 0 and the “Plant response rating, Mallow” value [3, 24] was 0. The “Plant response rating, Mallow” value [3, 25] was 0, the “Plant response rating, Mallow” value [3, 26] was 0 and the “Plant response rating, Mallow” value [3, 27] was 65. The “Plant response rating, Goosegrass” value [4, 22] was 35, the “Plant response rating, Goosegrass” value [4, 23] was 65 and the “Plant response rating, Goosegrass” value [4, 16] was 65. For the same compound, the “Plant response rating, Goosegrass” value [4, 18] was 65, the “Plant response rating, Goosegrass” value [4, 24] was 20 and the “Plant response rating, Goosegrass” value [4, 25] was 20. The “Plant response rating, Goosegrass” value [4, 26] was 40, the “Plant response rating, Goosegrass” value [4, 27] was 40 and the “Plant response rating, Crabgrass, Naked” value [5, 22] was 35. The “Plant response rating, Crabgrass, Naked” value [5, 23] was 50, the “Plant response rating, Crabgrass, Naked” value [5, 16] was 65 and the “Plant response rating, Crabgrass, Naked” value [5, 24] was 0. The “Plant response rating, Crabgrass, Naked” value [5, 25] was 0, the “Plant response rating, Crabgrass, Naked” value [5, 26] was 0 and the “Plant response rating, Crabgrass, Naked” value [5, 27] was 0. For the same compound, the “Plant response rating, Prickly Sida” value [6, 22] was 50, the “Plant response rating, Prickly Sida” value [6, 23] was 50 and the “Plant response rating, Prickly Sida” value [6, 16] was 75. The “Plant response rating, Prickly Sida” value [6, 18] was 65, the “Plant response rating, Prickly Sida” value [6, 24] was 0 and the “Plant response rating, Prickly Sida” value [6, 25] was 20. The “Plant response rating, Prickly Sida” value [6, 26] was 20, the “Plant response rating, Prickly Sida” value [6, 27] was 35 and the “Plant response rating, Sandbur” value [7, 22] was 5. For the same compound, the “Plant response rating, Sandbur” value [7, 23] was 25, the “Plant response rating, Sandbur” value [7, 16] was 60 and the “Plant response rating, Sandbur” value [7, 18] was 25. For the same compound, the “Plant response rating, Sandbur” value [7, 24] was 0, the “Plant response rating, Sandbur” value [7, 25] was 0 and the “Plant response rating, Sandbur” value [7, 27] was 75. The “Plant response rating, Bermudagrass” value [8, 22] was 65, the “Plant response rating, Bermudagrass” value [8, 19] was 75 and the “Plant response rating, Bermudagrass” value [8, 16] was 85. The “Plant response rating, Bermudagrass” value [8, 18] was 80, the “Plant response rating, Bermudagrass” value [8, 24] was 0 and the “Plant response rating, Bermudagrass” value [8, 25] was 0. For the same compound, the “Plant response rating, Bermudagrass” value [8, 26] was 0, the “Plant response rating, Bermudagrass” value [8, 27] was 30 and the “Plant response rating, Groundsel” value ([9]; 16 g ai/ha, scale 0 to 100) was 85. For the same compound, the “Plant response rating, Groundsel” value ([9]; 31 g ai/ha, scale 0 to 100) was 98, the “Plant response rating, Groundsel” value [9, 20] was 100 and the “Plant response rating, Groundsel” value [9, 21] was 100. For the same compound, the “Plant response rating, Foxtail, Green” value [10, 22] was 10, the “Plant response rating, Foxtail, Green” value [10, 23] was 20 and the “Plant response rating, Foxtail, Green” value [10, 16] was 65. For the same compound, the “Plant response rating, Foxtail, Green” value [10, 18] was 40, the “Plant response rating, Foxtail, Green” value [10, 24] was 0 and the “Plant response rating, Foxtail, Green” value [10, 25] was 0. The “Plant response rating, Foxtail, Green” value [10, 26] was 0, the “Plant response rating, Foxtail, Green” value [10, 27] was 0 and the “Plant response rating, Dayflower, VA” value [11, 22] was 10. The “Plant response rating, Dayflower, VA” value [11, 23] was 10, the “Plant response rating, Dayflower, VA” value [11, 16] was 20 and the “Plant response rating, Dayflower, VA” value [11, 18] was 10. The “Plant response rating, Dayflower, VA” value [11, 24] was 0, the “Plant response rating, Dayflower, VA” value [11, 25] was 0 and the “Plant response rating, Dayflower, VA” value [11, 27] was 0. The “Plant response rating, Ryegrass, Italian” value [12, 22] was 0, the “Plant response rating, Ryegrass, Italian” value [12, 23] was 0 and the “Plant response rating, Ryegrass, Italian” value [12, 16] was 0. The “Plant response rating, Ryegrass, Italian” value [12, 18] was 0, the “Plant response rating, Ryegrass, Italian” value [12, 24] was 0 and the “Plant response rating, Ryegrass, Italian” value [12, 25] was 0. For the same compound, the “Plant response rating, Ryegrass, Italian” value [12, 27] was 0, the “Plant response rating, Bluegrass” value [13, 22] was 0 and the “Plant response rating, Bluegrass” value [13, 19] was 0. The “Plant response rating, Bluegrass” value [13, 16] was 0, the “Plant response rating, Bluegrass” value [13, 18] was 0 and the “Plant response rating, Bluegrass” value [13, 24] was 0. For the same compound, the “Plant response rating, Bluegrass” value [13, 25] was 0, the “Plant response rating, Bluegrass” value [13, 26] was 0 and the “Plant response rating, Bluegrass” value [13, 27] was 0. For the same compound, the “Plant response rating, Ragweed” value [14, 22] was 60, the “Plant response rating, Ragweed” value [14, 23] was 75 and the “Plant response rating, Ragweed” value [14, 16] was 85. For the same compound, the “Plant response rating, Ragweed” value [14, 18] was 80, the “Plant response rating, Ragweed” value [14, 24] was 35 and the “Plant response rating, Ragweed” value [14, 25] was 50. The “Plant response rating, Ragweed” value [14, 27] was 95, the “Plant response rating, Quackgrass” value [15, 22] was 0 and the “Plant response rating, Quackgrass” value [15, 23] was 0. The “Plant response rating, Quackgrass” value [15, 16] was 0, the “Plant response rating, Quackgrass” value [15, 18] was 0 and the “Plant response rating, Quackgrass” value [15, 24] was 0. For the same compound, the “Plant response rating, Quackgrass” value [15, 25] was 0 and the “Plant response rating, Quackgrass” value [15, 27] was 0.
